Molecular target: protein phosphatase PP2A (Homo sapiens, UniProt P67775)
Assay: Inhibition of purified protein phosphatase PP2A
Assay type: biochemical
Procedure: In vivo, endothall has a longer half-life that LB-100 on the order of 6 hours compared to about 1 hour or less for LB-100. […] A half-life of several hours of activity is clinically more desirable that much shorter durations. Modification of substituents of LB-100 provide opportunities to further enhance the clinical usefulness of LB-100 by for example improving oral absorption, uptake into specific organs bearing the disease process, for example, the brain, and further modifying the rate of conversion for effective delivery of parent compound and/or endothall to tissue.

Sequence of protein phosphatase PP2A (P67775 whole entry): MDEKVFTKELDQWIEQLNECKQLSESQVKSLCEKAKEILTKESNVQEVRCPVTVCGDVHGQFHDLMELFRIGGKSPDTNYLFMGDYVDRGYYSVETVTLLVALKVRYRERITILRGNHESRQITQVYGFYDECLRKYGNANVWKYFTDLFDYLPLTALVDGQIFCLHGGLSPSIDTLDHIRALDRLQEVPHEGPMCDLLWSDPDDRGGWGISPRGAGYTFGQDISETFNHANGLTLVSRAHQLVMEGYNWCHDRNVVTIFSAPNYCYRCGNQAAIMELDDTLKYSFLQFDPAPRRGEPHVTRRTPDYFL

`O=C(O)C1C2CCC(O2)C1C(=O)O` (stereo not shown) [Endothal, 7-oxabicyclo[2.2.1]heptane-2,3-dicarboxylic acid] showed an IC50 of about 90 nM.
